Data published in US20110092517A1, “Use of PPAR Delta Ligands for the Treatment or Prevention of Inflammation or Energy Metabolism/Production Related Diseases” (Cerenis Therapeutics S.A. & Nippon Chemiphar Co., Ltd., priority 2009, published 2011).
“Also recorded” adds a separate entry of the source. Like-named read-outs stand apart in the source and are kept apart here.

Experiments:
[1] = Triglycerides content in the liver after 5 weeks of treatment in WD fed rats (enzymatic-colorimetric method); type: in vivo, rat; conditions: pioglitazone 10, GW501516 10, compound I.1 at any used dose
Protocol: At the end of the clamp procedure (9.5 hours fasting), perirenal, retroperitoneal, epididymal and inguinal fat pads and liver weights were recorded. Blood was collected from cardiac puncture and plasmas were stored at −80° C. for further assays if needed (depending on the radioactive state of samples). Liver triglyceride content was assessed (enzymatic-colorimetric method) as well as liver and adipose tissue TNF-α content (ELISA method).

[2] = target: T1, mouse PPARα (Mus musculus, UniProt P23204); assay: GAL4-PPAR chimera transactivation assay in CV-1 cells at 10% or 0.1% serum (Example 4); type: cell-based; conditions: read-out: GAL4-chimera (mouse) EC50 (μM) hPPARα
T1 construct: amino acids 167-468 for hs and m; expressed in transfected cells; host or cells: CV-1
T1 sequence (P23204 167-468): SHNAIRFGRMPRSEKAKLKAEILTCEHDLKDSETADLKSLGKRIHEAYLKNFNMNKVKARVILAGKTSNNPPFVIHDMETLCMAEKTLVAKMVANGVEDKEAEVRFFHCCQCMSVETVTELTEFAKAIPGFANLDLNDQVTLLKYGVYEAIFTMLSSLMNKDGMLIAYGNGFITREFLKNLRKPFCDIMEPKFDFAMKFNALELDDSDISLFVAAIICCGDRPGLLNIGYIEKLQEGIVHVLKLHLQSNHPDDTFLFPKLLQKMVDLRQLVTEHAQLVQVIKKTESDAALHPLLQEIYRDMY

- EC50 ([2]; 0.1% serum): > 10 µM
- EC50 ([2]; 10% serum): > 10 µM
Compound: Cc1cc(C(=O)CCc2sc(-c3ccc(C(F)(F)F)cc3)nc2C(C)C)ccc1OCC(=O)O [compound I.1, 4-[3-[4-Isopropyl-2-[4-(trifluoromethyl)phenyl]-5-thiazolyl]propionyl]-2-methylphenoxyacetic acid]
- Triglycerides content in the liver [1]: did not affect; also recorded: did not significantly decrease
